Measured values published in PubChem BioAssay AID2060486 (Molecular Pharmacology Branch, DTP, NCI, 2025).

System: IGROV1 complex spheroids (HUVEC, MSC), viability % test/control
Test: Anticancer human tumor IGROV1 cell line growth inhibition [GQUAD];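 note: spheroids exposed to compounds for 7 days before readout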;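 for viability, T/C: 100% = DMSO vehicle control viability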
Details: for IC50: curve of first compound; for viability, T/C: stronger effect = lower value
Summary of the method: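 Viability of tumor cells grown as complex spheroids with endothelial and stromal cells, exposed to drug combinations. Top concentration at or near clinical Cmax (else 10 microM), diluted in half-log increments.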

[1] = second compound 0.0316 µM, first compound 0.0316 µM
[2] = second compound 0.0316 µM, first compound 0.1 µM
[3] = second compound 0.0316 µM, first compound 0.316 µM
[4] = second compound 0.0316 µM, first compound 1 µM
[5] = second compound 0.0316 µM, first compound 3.16 µM
[6] = second compound 0.0316 µM, first compound 10 µM
[7] = second compound 0.1 µM, first compound 0.0316 µM
[8] = second compound 0.1 µM, first compound 0.1 µM
[9] = second compound 0.1 µM, first compound 0.316 µM
[10] = second compound 0.1 µM, first compound 1 µM
[11] = second compound 0.1 µM, first compound 3.16 µM
[12] = second compound 0.1 µM, first compound 10 µM
[13] = second compound 0.316 µM, first compound 0.0316 µM
[14] = second compound 0.316 µM, first compound 0.1 µM
[15] = second compound 0.316 µM, first compound 0.316 µM
[16] = second compound 0.316 µM, first compound 1 µM
[17] = second compound 0.316 µM, first compound 3.16 µM
[18] = second compound 0.316 µM, first compound 10 µM
[19] = second compound 1 µM, first compound 0.0316 µM
[20] = second compound 1 µM, first compound 0.1 µM
[21] = second compound 1 µM, first compound 0.316 µM
[22] = second compound 1 µM, first compound 1 µM
[23] = second compound 1 µM, first compound 3.16 µM
[24] = second compound 1 µM, first compound 10 µM
[25] = second compound 3.16 µM, first compound 0.0316 µM
[26] = second compound 3.16 µM, first compound 0.1 µM
[27] = second compound 3.16 µM, first compound 0.316 µM
[28] = second compound 3.16 µM, first compound 1 µM
[29] = second compound 3.16 µM, first compound 3.16 µM
[30] = second compound 3.16 µM, first compound 10 µM
[31] = second compound 10 µM, first compound 0.0316 µM
[32] = second compound 10 µM, first compound 0.1 µM
[33] = second compound 10 µM, first compound 0.316 µM
[34] = second compound 10 µM, first compound 1 µM
[35] = second compound 10 µM, first compound 3.16 µM
[36] = second compound 10 µM, first compound 10 µM

CC(C)n1c(=O)n(C)c2cnc3cc(F)c(-c4ccc(OCCCN5CCCCC5)nc4)cc3c21 + Cc1cnc(CNC(=O)c2c(=O)c3ccc(N4CCCN(C)CC4)nc3n3c2sc2ccccc23)cn1
IC50 (second compound 0.0316 µM): < 0.0316 µM
IC50 (second compound 0.1 µM): < 0.0316 µM
IC50 (second compound 0.316 µM): < 0.0316 µM
IC50 (second compound 1 µM): < 0.0316 µM
IC50 (second compound 3.16 µM): < 0.0316 µM
IC50 (second compound 10 µM): < 0.0316 µM
viability, T/C [1]: 13.7%
viability, T/C [2]: 11.3%
viability, T/C [3]: 10.6%
viability, T/C [4]: 11.4%
viability, T/C [5]: 10.2%
viability, T/C [6]: 11.2%
viability, T/C [7]: 12.4%
viability, T/C [8]: 12.1%
viability, T/C [9]: 12.4%
viability, T/C [10]: 10.7%
viability, T/C [11]: 11.3%
viability, T/C [12]: 7.45%
viability, T/C [13]: 15.1%
viability, T/C [14]: 11.4%
viability, T/C [15]: 11.7%
viability, T/C [16]: 11.4%
viability, T/C [17]: 9.7%
viability, T/C [18]: 8.1%
viability, T/C [19]: 13%
viability, T/C [20]: 12.8%
viability, T/C [21]: 9.09%
viability, T/C [22]: 9.18%
viability, T/C [23]: 9.72%
viability, T/C [24]: 7.74%
viability, T/C [25]: 8.77%
viability, T/C [26]: 9.43%
viability, T/C [27]: 9.15%
viability, T/C [28]: 11.1%
viability, T/C [29]: 10.6%
viability, T/C [30]: 6.66%
viability, T/C [31]: 12.3%
viability, T/C [32]: 7.9%
viability, T/C [33]: 9.45%
viability, T/C [34]: 9.57%
viability, T/C [35]: 8.82%
viability, T/C [36]: 9.01%

CC1COCCN1c1cc(C2(O)CC3CCC(C2)O3)c2cnn(-c3ccn[nH]3)c2n1 (stereo not drawn) + Cc1cnc(CNC(=O)c2c(=O)c3ccc(N4CCCN(C)CC4)nc3n3c2sc2ccccc23)cn1
IC50 (second compound 0.0316 µM): < 0.0316 µM
IC50 (second compound 0.1 µM): < 0.0316 µM
IC50 (second compound 0.316 µM): < 0.0316 µM
IC50 (second compound 1 µM): < 0.0316 µM
IC50 (second compound 3.16 µM): < 0.0316 µM
IC50 (second compound 10 µM): < 0.0316 µM
viability, T/C [1]: 13.8%
viability, T/C [2]: 8.52%
viability, T/C [3]: 5.86%
viability, T/C [4]: 3.91%
viability, T/C [5]: 3.41%
viability, T/C [6]: 2.21%
viability, T/C [7]: 10.6%
viability, T/C [8]: 7.17%
viability, T/C [9]: 5.58%
viability, T/C [10]: 4.56%
viability, T/C [11]: 3.63%
viability, T/C [12]: 2.02%
viability, T/C [13]: 8.26%
viability, T/C [14]: 6.06%
viability, T/C [15]: 5.61%
viability, T/C [16]: 4.38%
viability, T/C [17]: 2.92%
viability, T/C [18]: 2.02%
viability, T/C [19]: 5.97%
viability, T/C [20]: 6.1%
viability, T/C [21]: 5.48%
viability, T/C [22]: 3.78%
viability, T/C [23]: 3.09%
viability, T/C [24]: 1.97%
viability, T/C [25]: 5.79%
viability, T/C [26]: 6.38%
viability, T/C [27]: 5%
viability, T/C [28]: 2.96%
viability, T/C [29]: 2.76%
viability, T/C [30]: 1.84%
viability, T/C [31]: 5.85%
viability, T/C [32]: 5.61%
viability, T/C [33]: 4.3%
viability, T/C [34]: 4.69%
viability, T/C [35]: 3.15%
viability, T/C [36]: 1.81%

Cn1ncnc1[C@H]1c2n[nH]c(=O)c3cc(F)cc(c23)N[C@@H]1c1ccc(F)cc1 + Cc1cnc(CNC(=O)c2c(=O)c3ccc(N4CCCN(C)CC4)nc3n3c2sc2ccccc23)cn1
IC50 (second compound 0.0316 µM): 0.0219 µM
IC50 (second compound 0.1 µM): < 0.000999 µM
IC50 (second compound 0.316 µM): < 0.000999 µM
IC50 (second compound 1 µM): < 0.000999 µM
IC50 (second compound 3.16 µM): < 0.000999 µM
IC50 (second compound 10 µM): < 0.000999 µM
viability, T/C (second compound 0.0316 µM, first compound 0.000999 µM): 73.9%
viability, T/C (second compound 0.0316 µM, first compound 0.00316 µM): 67.1%
viability, T/C (second compound 0.0316 µM, first compound 0.00999 µM): 60%
viability, T/C [1]: 41%
viability, T/C (second compound 0.0316 µM, first compound 0.0999 µM): 38.5%
viability, T/C [3]: 19.3%
viability, T/C (second compound 0.1 µM, first compound 0.000999 µM): 44.2%
viability, T/C (second compound 0.1 µM, first compound 0.00316 µM): 34.8%
viability, T/C (second compound 0.1 µM, first compound 0.00999 µM): 30.9%
viability, T/C [7]: 21.6%
viability, T/C (second compound 0.1 µM, first compound 0.0999 µM): 21.6%
viability, T/C [9]: 19%
viability, T/C (second compound 0.316 µM, first compound 0.000999 µM): 29.5%
viability, T/C (second compound 0.316 µM, first compound 0.00316 µM): 18.9%
viability, T/C (second compound 0.316 µM, first compound 0.00999 µM): 20.2%
viability, T/C [13]: 16.8%
viability, T/C (second compound 0.316 µM, first compound 0.0999 µM): 16.5%
viability, T/C [15]: 12.4%
viability, T/C (second compound 1 µM, first compound 0.000999 µM): 17.3%
viability, T/C (second compound 1 µM, first compound 0.00316 µM): 11%
viability, T/C (second compound 1 µM, first compound 0.00999 µM): 14.8%
viability, T/C [19]: 14%
viability, T/C (second compound 1 µM, first compound 0.0999 µM): 12.7%
viability, T/C [21]: 12.1%
viability, T/C (second compound 3.16 µM, first compound 0.000999 µM): 11.3%
viability, T/C (second compound 3.16 µM, first compound 0.00316 µM): 8.42%
viability, T/C (second compound 3.16 µM, first compound 0.00999 µM): 10.4%
viability, T/C [25]: 13.2%
viability, T/C (second compound 3.16 µM, first compound 0.0999 µM): 9.17%
viability, T/C [27]: 7.53%
viability, T/C (second compound 10 µM, first compound 0.000999 µM): 8.16%
viability, T/C (second compound 10 µM, first compound 0.00316 µM): 10%
viability, T/C (second compound 10 µM, first compound 0.00999 µM): 10.5%
viability, T/C [31]: 9.96%
viability, T/C (second compound 10 µM, first compound 0.0999 µM): 10.5%
viability, T/C [33]: 8.19%

O=C(c1cc(Cc2n[nH]c(=O)c3ccccc23)ccc1F)N1CCN(C(=O)C2CC2)CC1 + Cc1cnc(CNC(=O)c2c(=O)c3ccc(N4CCCN(C)CC4)nc3n3c2sc2ccccc23)cn1
IC50 (second compound 0.0316 µM): 1.61 µM
IC50 (second compound 0.1 µM): < 0.0316 µM
IC50 (second compound 0.316 µM): < 0.0316 µM
IC50 (second compound 1 µM): < 0.0316 µM
IC50 (second compound 3.16 µM): < 0.0316 µM
IC50 (second compound 10 µM): < 0.0316 µM
viability, T/C [1]: 58.6%
viability, T/C [2]: 73%
viability, T/C [3]: 53.6%
viability, T/C [4]: 55.8%
viability, T/C [5]: 43.5%
viability, T/C [6]: 20.8%
viability, T/C [7]: 42.1%
viability, T/C [8]: 39.9%
viability, T/C [9]: 34%
viability, T/C [10]: 27.9%
viability, T/C [11]: 24.2%
viability, T/C [12]: 17.8%
viability, T/C [13]: 22.4%
viability, T/C [14]: 27.7%
viability, T/C [15]: 24%
viability, T/C [16]: 23.5%
viability, T/C [17]: 16.9%
viability, T/C [18]: 18.1%
viability, T/C [19]: 14.4%
viability, T/C [20]: 17.3%
viability, T/C [21]: 18.9%
viability, T/C [22]: 16.9%
viability, T/C [23]: 16%
viability, T/C [24]: 12.9%
viability, T/C [25]: 9.91%
viability, T/C [26]: 10.6%
viability, T/C [27]: 10.1%
viability, T/C [28]: 10.6%
viability, T/C [29]: 11.1%
viability, T/C [30]: 10.5%
viability, T/C [31]: 8.62%
viability, T/C [32]: 11.4%
viability, T/C [33]: 9.01%
viability, T/C [34]: 8.13%
viability, T/C [35]: 9.75%
viability, T/C [36]: 9.07%
